Residues, ends and D or L forms follow the SMILES beside them.
What was measured:
Insulin receptor [1] = molecular target: T1, Insulin receptor (Homo sapiens, UniProt P06213); assay: Activation of recombinant human insulin receptor using biotin-KSRGDYMTMQIG as substrate after 1 hr by spectrophotometry relative to insulin
Insulin receptor [2] = molecular target: Insulin receptor (Mus musculus, UniProt P15208); assay: Agonist activity at B6D2F1 mouse insulin receptor assessed as increase in glucose incorporation into lipid phase after 2 hrs in presence of D-[3-3H]glucose by TopCount microplate scintillation counting method
Sequence of Insulin receptor (Mus musculus, UniProt P15208) (P15208 28-748 limits assumed): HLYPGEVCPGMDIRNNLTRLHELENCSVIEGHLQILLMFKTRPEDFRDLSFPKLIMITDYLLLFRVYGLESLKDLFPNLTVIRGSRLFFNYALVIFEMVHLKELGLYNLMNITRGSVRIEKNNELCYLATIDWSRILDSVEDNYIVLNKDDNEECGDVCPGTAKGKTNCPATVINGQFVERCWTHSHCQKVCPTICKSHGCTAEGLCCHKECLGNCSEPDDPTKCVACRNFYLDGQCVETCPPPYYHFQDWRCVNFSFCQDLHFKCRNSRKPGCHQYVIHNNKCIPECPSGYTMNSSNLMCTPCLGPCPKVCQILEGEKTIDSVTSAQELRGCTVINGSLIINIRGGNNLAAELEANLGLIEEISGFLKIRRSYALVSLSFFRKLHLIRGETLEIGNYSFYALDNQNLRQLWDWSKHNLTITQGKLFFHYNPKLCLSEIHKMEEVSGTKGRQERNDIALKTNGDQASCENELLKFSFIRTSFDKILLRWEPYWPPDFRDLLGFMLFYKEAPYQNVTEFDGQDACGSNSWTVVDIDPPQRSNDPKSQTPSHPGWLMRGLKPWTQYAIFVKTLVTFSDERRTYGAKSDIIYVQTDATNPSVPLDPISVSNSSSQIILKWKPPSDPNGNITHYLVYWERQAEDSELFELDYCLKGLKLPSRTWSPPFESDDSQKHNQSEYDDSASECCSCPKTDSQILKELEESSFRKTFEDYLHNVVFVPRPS
Sequence of Insulin receptor (Mus musculus, UniProt P15208) (P15208 753-1372 limits assumed): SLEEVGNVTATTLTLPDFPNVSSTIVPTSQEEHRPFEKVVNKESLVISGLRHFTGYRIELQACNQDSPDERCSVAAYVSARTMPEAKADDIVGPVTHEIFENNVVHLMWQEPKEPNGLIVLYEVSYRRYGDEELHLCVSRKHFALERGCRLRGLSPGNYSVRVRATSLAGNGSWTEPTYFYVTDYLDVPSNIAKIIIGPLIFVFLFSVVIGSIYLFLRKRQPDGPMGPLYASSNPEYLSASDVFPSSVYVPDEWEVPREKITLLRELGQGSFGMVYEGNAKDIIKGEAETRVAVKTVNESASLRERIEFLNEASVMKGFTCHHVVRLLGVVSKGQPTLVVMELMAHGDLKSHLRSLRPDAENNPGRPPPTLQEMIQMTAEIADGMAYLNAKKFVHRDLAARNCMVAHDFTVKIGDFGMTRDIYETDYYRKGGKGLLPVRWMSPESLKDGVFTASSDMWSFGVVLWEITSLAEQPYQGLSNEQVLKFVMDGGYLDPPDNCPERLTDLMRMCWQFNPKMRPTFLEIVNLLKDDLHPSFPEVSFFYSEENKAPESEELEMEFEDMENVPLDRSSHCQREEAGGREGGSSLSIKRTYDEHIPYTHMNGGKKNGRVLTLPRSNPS

Insulin receptor [3] = molecular target: T1, Insulin receptor; assay: Displacement of [TyrA14-125I]-human insulin from human insulin receptor isoform A expressed in baby hamster kidney cells after 2 days by gamma counting method; format: cell-based

T1 sequence (P06213 28-758 limits assumed): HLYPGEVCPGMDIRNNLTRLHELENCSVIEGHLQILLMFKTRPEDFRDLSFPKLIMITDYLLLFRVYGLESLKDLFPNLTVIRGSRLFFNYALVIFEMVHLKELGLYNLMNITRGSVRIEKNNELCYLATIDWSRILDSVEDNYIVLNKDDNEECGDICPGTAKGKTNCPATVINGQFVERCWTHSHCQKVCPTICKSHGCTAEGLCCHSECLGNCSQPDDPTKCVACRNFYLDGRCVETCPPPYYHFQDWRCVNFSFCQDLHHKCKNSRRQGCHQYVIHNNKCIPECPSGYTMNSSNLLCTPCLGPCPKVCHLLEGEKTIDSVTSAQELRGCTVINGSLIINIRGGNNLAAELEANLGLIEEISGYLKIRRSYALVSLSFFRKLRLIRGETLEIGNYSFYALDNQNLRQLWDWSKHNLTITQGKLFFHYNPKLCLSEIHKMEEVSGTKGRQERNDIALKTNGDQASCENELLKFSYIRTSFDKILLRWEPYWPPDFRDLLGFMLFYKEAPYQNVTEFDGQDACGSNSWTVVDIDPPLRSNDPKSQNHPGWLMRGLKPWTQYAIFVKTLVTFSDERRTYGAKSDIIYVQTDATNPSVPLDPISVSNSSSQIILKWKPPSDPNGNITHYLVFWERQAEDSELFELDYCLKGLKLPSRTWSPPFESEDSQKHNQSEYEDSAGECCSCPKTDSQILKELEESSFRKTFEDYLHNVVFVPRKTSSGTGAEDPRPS
T1 sequence (P06213 763-1382 limits assumed): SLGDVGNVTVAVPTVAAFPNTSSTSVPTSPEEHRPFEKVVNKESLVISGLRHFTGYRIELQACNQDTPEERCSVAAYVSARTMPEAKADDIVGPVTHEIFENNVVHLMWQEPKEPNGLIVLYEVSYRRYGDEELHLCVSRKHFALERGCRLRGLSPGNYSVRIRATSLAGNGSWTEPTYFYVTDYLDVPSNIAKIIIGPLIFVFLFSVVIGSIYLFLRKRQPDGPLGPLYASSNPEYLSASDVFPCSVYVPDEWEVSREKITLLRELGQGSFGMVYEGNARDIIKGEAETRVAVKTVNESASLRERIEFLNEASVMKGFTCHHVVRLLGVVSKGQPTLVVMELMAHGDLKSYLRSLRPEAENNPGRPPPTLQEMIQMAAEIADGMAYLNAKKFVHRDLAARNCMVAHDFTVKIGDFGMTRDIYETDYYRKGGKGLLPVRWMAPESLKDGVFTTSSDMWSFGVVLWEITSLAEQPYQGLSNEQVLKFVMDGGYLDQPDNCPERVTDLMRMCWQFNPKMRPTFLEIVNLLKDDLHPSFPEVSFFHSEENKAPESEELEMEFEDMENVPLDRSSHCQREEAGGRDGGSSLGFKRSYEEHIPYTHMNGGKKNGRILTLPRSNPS

SMILES: CC(C)C[C@H](NC(=O)[C@H](CCC(N)=O)NC(=O)[C@H](CCCNC(=N)N)NC(=O)[C@H](CCC(=O)O)NC(=O)[C@H](Cc1ccccc1)NC(=O)[C@H](Cc1c[nH]c2ccccc12)NC(=O)[C@H](CC(=O)O)NC(=O)[C@H](Cc1ccc(O)cc1)NC(=O)[C@H](Cc1ccccc1)NC(=O)[C@H](CO)NC(=O)[C@H](CCC(=O)O)NC(=O)[C@H](CC(=O)O)NC(=O)[C@H](CC(C)C)NC(=O)[C@H](CO)NC(=O)CNC(=O)[C@H](CO)NC(=O)[C@@H]1CCCN1C(=O)[C@H](CS)NC(=O)CNC(=O)[C@H](CCCNC(=N)N)NC(=O)CNC(=O)[C@H](Cc1ccc(O)cc1)NC(=O)[C@@H](NC(=O)[C@H](CCC(=O)O)NC(=O)[C@H](CS)NC(=O)[C@H](CCC(=O)O)NC(=O)[C@@H](NC(=O)[C@H](CCC(N)=O)NC(=O)[C@H](C)NC(=O)[C@H](Cc1c[nH]c2ccccc12)NC(=O)[C@H](CCC(=O)O)NC(=O)[C@H](CCC(=O)O)NC(=O)[C@H](CCC(=O)O)NC(=O)[C@H](CC(C)C)NC(=O)[C@@H](N)CO)C(C)C)C(C)C)C(=O)NCC(=O)O (H-SLEEEWAQVECEVYGRGCPSGSLDESFYDWFERQLG-OH)
- Activity (Insulin receptor [1]): 10%
- EC50 (Insulin receptor [2]): 4 nM
- Kd (Insulin receptor [3]): 0.02 nM
